# Source: ChEMBL document CHEMBL1149702, “Toward novel HIV-1 integrase binding inhibitors: molecular modeling, synthesis, and biological studies” (Bioorg Med Chem Lett, 2007)
# Target: Human immunodeficiency virus type 1 integrase (Human immunodeficiency virus 1, UniProt Q7ZJM1)
# Assay: Inhibition of HIV1 integrase
# Chain of Human immunodeficiency virus type 1 integrase (Q7ZJM1 whole entry): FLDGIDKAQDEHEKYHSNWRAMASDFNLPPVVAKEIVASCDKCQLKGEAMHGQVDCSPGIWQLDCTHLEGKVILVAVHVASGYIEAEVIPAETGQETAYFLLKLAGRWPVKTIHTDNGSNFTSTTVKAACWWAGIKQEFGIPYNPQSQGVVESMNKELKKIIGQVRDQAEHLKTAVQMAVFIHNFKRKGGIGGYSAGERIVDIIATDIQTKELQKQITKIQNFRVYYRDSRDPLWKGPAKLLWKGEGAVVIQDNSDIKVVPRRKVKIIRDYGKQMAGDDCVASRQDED
row,IC50 [µM],SMILES
1,164,N#CC(=Cc1ccc(-c2cccc(C(=O)O)c2)o1)c1nc2ccccc2[nH]1
2,58.7,N#CC(=Cc1ccc(-c2cc([N+](=O)[O-])ccc2Cl)o1)c1nc2ccccc2[nH]1
3,12,O=[N+]([O-])c1cccc(-c2ccc(/C=C/c3nc4ccccc4[nH]3)o2)c1
4,90.4,N#CC(=Cc1ccc(-c2ccc(Cl)c(C(=O)O)c2)o1)c1nc2ccccc2[nH]1
5,> 281,N#CC(=Cc1ccc(-c2ccc(C(=O)O)cc2)o1)c1nc2ccccc2[nH]1
6,39.8,Cc1ccc(C(=O)O)cc1-c1ccc(C=C(C#N)c2nc3ccccc3[nH]2)o1
7,68.7,N#CC(=Cc1ccc(-c2ccc(O)c(C(=O)O)c2)o1)c1nc2ccccc2[nH]1
8,> 289,N#CC(=Cc1ccc(-c2ccc(Cl)cc2)o1)c1nc2ccccc2[nH]1
9,> 302,O=[N+]([O-])c1ccccc1-c1ccc(/C=C/c2nc3ccccc3[nH]2)o1
10,> 290,Cc1c(-c2ccc(/C=C/c3nc4ccccc4[nH]3)o2)cccc1[N+](=O)[O-]
11,> 273,O=[N+]([O-])c1cc(Cl)ccc1-c1ccc(/C=C/c2nc3ccccc3[nH]2)o1
12,85.8,Cc1c(-c2ccc(C=C(C#N)c3nc4ccccc4[nH]3)o2)cccc1[N+](=O)[O-]
13,> 281,N#CC(=Cc1ccc(-c2ccccc2[N+](=O)[O-])o1)c1nc2ccccc2[nH]1
14,> 263,C/C(=C\c1ccc(-c2ccc(Cl)cc2[N+](=O)[O-])o1)c1nc2ccccc2[nH]1
15,> 257,FC(F)(F)c1cccc(Cl)c1-c1ccc(/C=C/c2nc3ccccc3[nH]2)o1
16,> 241,N#C/C(=C\c1ccc(-c2c(Cl)cccc2C(F)(F)F)o1)c1nc2ccccc2o1
17,70.3,N#CC(=Cc1ccc(-c2ccc(C(=O)O)c(O)c2)o1)c1nc2ccccc2[nH]1
18,> 268,N#CC(=Cc1ccc(-c2ccc(F)cc2C(=O)O)o1)c1nc2ccccc2[nH]1
19,> 281,N#CC(=Cc1ccc(-c2cccc([N+](=O)[O-])c2)o1)c1nc2ccccc2[nH]1
20,31.3,N#CC(=Cc1ccc(-c2cc(C(F)(F)F)ccc2Cl)o1)c1nc2ccccc2[nH]1
21,> 232,N#C/C(=C\c1ccc(-c2c(Cl)cccc2C(F)(F)F)o1)c1nc2ccccc2s1
22,> 245,N#C/C(=C\c1ccc(-c2ccc(Cl)cc2[N+](=O)[O-])o1)c1nc2ccccc2s1
23,> 268,N#C/C(=C\c1ccc(-c2cccc([N+](=O)[O-])c2)o1)c1nc2ccccc2s1
24,36.2,Cc1ccc2[nH]c(C(C#N)=Cc3ccc(-c4ccc(Cl)cc4C(=O)O)o3)nc2c1
25,> 271,COc1c(C)cc(-c2ccc(C=C(C#N)c3nc4ccccc4[nH]3)o2)cc1C
26,> 235,CC(C)(C)OC(=O)Nc1ccc(-c2ccc(C=C(C#N)c3nc4ccccc4[nH]3)o2)cc1
27,> 244,NC(=O)/C(=C\c1ccc(-c2ccc(Cl)cc2[N+](=O)[O-])o1)c1nc2ccccc2[nH]1
28,> 280,N#C/C(=C\c1ccc(-c2cccc([N+](=O)[O-])c2)o1)c1nc2ccccc2o1
29,> 291,COc1c(C)cc(-c2ccc(/C=C/c3nc4ccccc4[nH]3)o2)cc1C
30,> 292,COc1ccc(-c2ccc(C=C(C#N)c3nc4ccccc4[nH]3)o2)cn1
